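Method: 48-hour compound exposure of cells in 96-well plates, five concentrations, linear interpolation of endpoints. TGI denotes the concentration required for complete inhibition of growth.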 *1 amine or outer side, *2 acyl side, *3 side chain or, on linkers, in order; H or OH if unused. Where a SMILES comes first, the peptide text is derived from it. [ ]: non-standard residue; d: D form. The star is where a group is joined. ξ: configuration not given here. NMeY = CN[C@@H](Cc1ccc(O)cc1)C(=O)O; Ethylenediamine = C(CN[*:2])N[*:1]; ξNMeL = CNC(CC(C)C)C(=O)O; Cbz = O=C(OCc1ccccc1)*; Lac = C[C@H](O)C(=O)O; ξA = CC(N)C(=O)O
What was measured:
Assay in all cases: NCI anticancer screen, dose series, 48 h
786-0 renal = tested on: 786-0 renal
ACHN renal = tested on: ACHN renal
HOP-92 NSCLC = tested on: HOP-92 NSCLC
MALME-3M melanoma = tested on: MALME-3M melanoma
MDA-MB-231 breast = tested on: MDA-MB-231 breast
NCI-H23 lung = tested on: NCI-H23 lung
NCI/ADR-RES ovarian = tested on: NCI/ADR-RES ovarian
OVCAR-3 ovarian = tested on: OVCAR-3 ovarian
OVCAR-4 ovarian = tested on: OVCAR-4 ovarian
OVCAR-5 ovarian = tested on: OVCAR-5 ovarian
OVCAR-8 ovarian = tested on: OVCAR-8 ovarian
PC-3 prostate = tested on: PC-3 prostate
SF-268 CNS = tested on: SF-268 CNS
SK-MEL-2 melanoma = tested on: SK-MEL-2 melanoma
SK-MEL-28 melanoma = tested on: SK-MEL-28 melanoma
SK-OV-3 ovarian = tested on: SK-OV-3 ovarian
T-47D breast = tested on: T-47D breast
TK-10 renal = tested on: TK-10 renal
UO-31 renal = tested on: UO-31 renal

Structure (SMILES) | TGI (786-0 renal) [µM] | TGI (ACHN renal) [µM] | TGI (HOP-92 NSCLC) [µM] | TGI (MALME-3M melanoma) [µM] | TGI (MDA-MB-231 breast) [µM] | TGI (NCI-H23 lung) [µM] | TGI (NCI/ADR-RES ovarian) [µM] | TGI (OVCAR-3 ovarian) [µM] | TGI (OVCAR-4 ovarian) [µM] | TGI (OVCAR-5 ovarian) [µM] | TGI (OVCAR-8 ovarian) [µM] | TGI (PC-3 prostate) [µM] | TGI (SF-268 CNS) [µM] | TGI (SK-MEL-2 melanoma) [µM] | TGI (SK-MEL-28 melanoma) [µM] | TGI (SK-OV-3 ovarian) [µM] | TGI (T-47D breast) [µM] | TGI (TK-10 renal) [µM] | TGI (UO-31 renal) [µM]
COc1ccc(C[C@@H](C(=O)NCCNC(=O)C(CC(C)C)N(C)C(=O)[C@@H]2CCCN2C(=O)[C@H](C)O)N(C)C(=O)[C@@H]2CCCN2C(=O)[C@H](CC(C)C)NC(=O)C(C)NC(=O)OCc2ccccc2)cc1 (some centres not stated) (Cbz-[ξA]LP[NMeY](Me)-{Ethylenediamine-ξNMeL-Pro-Lac}) | > 100 | > 100 | > 100 | > 100 | > 100 | > 100 | > 100 | > 100 | > 100 | > 100 | > 100 | > 100 | > 100 | > 100 | > 100 | > 100 | > 100 | > 100 | > 100
Cc1cccc(NC(=O)O/N=C(\Cl)C(C)C)c1 | 4.12 | 3.94 | 3.14 | 5.29 | 33.4 | 29.1 | 38.4 | 11.4 | 29.4 | 35.8 | 34.2 | 30.9 | 38 | 32.6 | 26.7 | 31.7 | 15.6 | 27.3 | 30.3
CN(C)CCNCc1ccc2c(-c3ccccc3)nc3cc(Cl)c(Cl)cc3n12 | 15.2 | 14.8 | 28.3 | 33.1 | 25.2 | 28.9 | 31.4 | 35.9 | 26.7 | 26.1 | 27.7 | 27.3 | 29.7 | 20.6 | 14.1 | 17.4 | 15.1 | 22.2 | 14.7

From PubChem BioAssay (NCI)
